Source: the NIST ThermoML archive (doi:10.1016/j.fluid.2005.09.012)
± gives the expanded uncertainty stated by the source.

Assays:
[1] = Liquid; for mass density: 293.15 K, 101.33 kPa
[2] = refractive index (Na D-line) (dimensionless); details: 293.15 K; 101.33 kPa; Liquid

Row | Compound | mass density [1] | refractive index [2] | further results
1 | ClC(Cl)C(Cl)Cl [1,1,2,2-tetrachloroethane] | 1593 ± 4.5 kg/m3 | 1.494 ± 0.0017 | vapor or sublimation pressure ([1]; 417.35 K): 95.75 ± 9 kPa
2 | ClCCCl [1,2-dichloroethane] | 1252.9 ± 3.4 kg/m3 | 1.4196 ± 0.0017 | vapor or sublimation pressure ([1]; 355.25 K): 95.75 ± 9 kPa
3 | Cc1ccccc1C [1,2-dimethylbenzene] | 880.1 ± 2.2 kg/m3 | 1.5055 ± 0.0017 | vapor or sublimation pressure ([1]; 415.55 K): 95.75 ± 9 kPa
4 | Cc1cccc(C)c1 [1,3-dimethylbenzene] | 864.4 ± 2.1 kg/m3 | 1.4972 ± 0.0017 | vapor or sublimation pressure ([1]; 410.35 K): 95.75 ± 9 kPa
5 | Cc1ccc(C)cc1 [1,4-dimethylbenzene] | 861 ± 2.1 kg/m3 | 1.4858 ± 0.0017 | vapor or sublimation pressure ([1]; 409.35 K): 95.75 ± 9 kPa
6 | Cc1ccccc1O [2-methylphenol] | 1046 ± 2.7 kg/m3 | 1.5467 ± 0.0017 | vapor or sublimation pressure ([1]; 461.85 K): 95.75 ± 9.6 kPa
7 | CCCCCCC [heptane] | 683.8 ± 1.5 kg/m3 | 1.3876 ± 0.0017 | vapor or sublimation pressure ([1]; 369.75 K): 95.75 ± 9 kPa
8 | ClC(Cl)=C(Cl)Cl [tetrachloroethene] | 1625 ± 4.6 kg/m3 | 1.505 ± 0.0017 | vapor or sublimation pressure ([1]; 392.25 K): 95.75 ± 9 kPa
9 | ClC=C(Cl)Cl [trichloroethene] | 1464 ± 4.1 kg/m3 | 1.4782 ± 0.0017 | vapor or sublimation pressure ([1]; 357.95 K): 95.75 ± 9 kPa
